Patent US5154929A, “Percutaneous absorption type preparation and process for preparing the same” (Nitto Denko Corporation, priority 1988, dated 1992)

Assay: Saturated solubility of the drug in the pressure-sensitive adhesive

SMILES | Saturated Solubility (in adhesive of Comparative Example 3 (nonylacrylate 75, ethoxyethylacrylate 15, vinyl acetate 10)) [%] | Saturated Solubility (in adhesive of Comparative Example 4 (nonylacrylate 60, ethoxyethylacrylate 20, vinyl acetate 20)) [%] | Saturated Solubility (in adhesive of Example 3 (nonylacrylate 75, ethoxyethylacrylate 15, vinyl acetate 10)) [%] | Saturated Solubility (in adhesive of Comparative Example 5 (2-ethylhexylacrylate 85, N-vinyl-2-pyrrolidone 15)) [%] | Saturated Solubility (in adhesive of Comparative Example 6 (2-ethylhexylacrylate 75, N-vinyl-2-pyrrolidone 25)) [%] | Saturated Solubility (in adhesive of Example 4 (2-ethylhexylacrylate 85, N-vinyl-2-pyrrolidone 15)) [%]
CN1C(=O)CN=C(c2ccccc2F)c2cc([N+](=O)[O-])ccc21 [Flunitrazepam] | 3.5 | 4 | 3.5 | – | – | –
CC(C)NCC(O)COc1cccc2[nH]ccc12 (stereo not drawn) [Pindolol] | – | – | – | 7 | 6 | 7
